Consider one compound from patent publication US20160355465A1, “NOVEL MODIFIED CURCUMINS AND THEIR USES” (THE RESEARCH FOUNDATION OF STATE UNIVERSITY OF NEW YORK, priority 2011, published 2016).

The subject of data set [1] is MMPs 1, 2, 3, 7, 8, 9, 12, 13 and 14. The data set can be described thus: activity against a battery of MMPs (summary in words). The class given is biochemical, human.
The target of data set [2] is MMP-9 (Homo sapiens, UniProt P14780). The experiment in a line: fluorimetric assay of MMP activity. Format: biochemical. Particulars: synthetic fluorescent peptide substrate Mca-Lys-Pro-Leu-Gly-Leu-Dpa-Ala-Arg-NH2.
Chain of MMP-9 (Homo sapiens, UniProt P14780) (P14780 94-707): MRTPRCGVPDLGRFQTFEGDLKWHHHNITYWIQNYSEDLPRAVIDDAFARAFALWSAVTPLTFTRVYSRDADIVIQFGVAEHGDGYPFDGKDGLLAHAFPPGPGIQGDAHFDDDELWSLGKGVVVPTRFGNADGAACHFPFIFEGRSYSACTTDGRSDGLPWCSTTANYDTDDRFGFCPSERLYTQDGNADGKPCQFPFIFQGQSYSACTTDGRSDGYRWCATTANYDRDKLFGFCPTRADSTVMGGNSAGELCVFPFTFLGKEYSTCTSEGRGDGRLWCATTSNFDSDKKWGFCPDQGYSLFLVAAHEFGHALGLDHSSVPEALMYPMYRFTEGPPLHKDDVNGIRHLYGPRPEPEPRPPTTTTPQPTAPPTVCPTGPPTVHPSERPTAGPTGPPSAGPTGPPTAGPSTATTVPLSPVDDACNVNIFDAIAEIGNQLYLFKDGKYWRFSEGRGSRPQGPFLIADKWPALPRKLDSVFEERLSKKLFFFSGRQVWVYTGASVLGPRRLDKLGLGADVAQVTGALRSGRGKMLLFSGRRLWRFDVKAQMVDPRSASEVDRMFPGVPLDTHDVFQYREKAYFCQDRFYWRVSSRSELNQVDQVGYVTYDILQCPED
The subject of the next data set is IL-6. The experiment in a line: cytokine production by peritoneal macrophages of orally treated diabetic rats in culture. The class given is in vivo, rat. Particulars: oral 30 mg/kg daily, 21 days, culture with or without P. gingivalis LPS. How it is done: (§1) Adult male Sprague-Dawley rats (body weight 300-350 g) were injected through the tail vein with either 0.9% saline (non-diabetic control) or with the same solution containing streptozotocin (70 mg/kg body weight) to induce diabetes. Non-diabetic rats served as normal controls. The diabetic rats were distributed into 2 experimental groups (3 rats per group). Urine glucose levels were measured weekly with Tes-Tape (Eli Lilly Inc.). One group of rats was treated by oral gavage of Compound 4 (30 mg/kg body weight) daily for 21 days; the Compound 4 was suspended in 2% carboxymethyl cellulose and polytron/homogenized. The normal & diabetic vehicle-treated (control) groups were oral gavaged with vehicle alone daily.
(§2) Rat peritoneal macrophages were harvested with 10 ml RPMI 4 days after intraperitoneal injection of 10 ml of thioglycolate (3% wt/vol). Macrophages were then purified by density gradient centrifugation (lymphoprep) and cell numbers were counted in a hemocytometer. The cells were then tested in a cell migration assay (Cell BioLabs, Inc, CytoSelect 96-well with 5 um fluorometric format) using conditioned medium containing inflammatory mediators including MCP-1 from LPS-macrophages as a chemoattractant. The macrophages from different groups of rats were also plated onto 24 well-plates with and without p.g.LPS challenge for 24 hours in 37° C., 5% CO2. […]

For the next data set, the system named is IL-1β. The data set is described as above. The class given is in vivo, rat. Particulars: oral 30 mg/kg daily, 21 days, culture with or without P. gingivalis LPS. How it is done: as §1, §2
Data set [3] concerns peritoneal macrophages. The data set can be described thus: macrophage accumulation in peritoneal exudates of diabetic rats. The class given is in vivo, rat. Particulars: oral 30 mg/kg daily, 21 days. How it is done: as §1, §2
A short description of data set [4]: toxicity / tolerability in diabetic rats. Format: in vivo. The method, then:
The following five experimental groups (n=3 rats per group) were established: Non-diabetic control rats (NDC) treated by daily application of white petrolatum jelly (“vehicle”) for 7 days, diabetic rats (D group) treated daily with vehicle alone; diabetics treated by daily topical application of either a 1% (D+1%) or a 3% (D+3%) suspension of Compound 4 in the vehicle; and diabetics treated systemically by daily oral intubation of a 1 ml suspension of Compound 4 (in carboxymethylcellulose) at a dose of 30 mg/kg over the 7-day treatment protocol (D+30 mg/kg). At the end of this time period, the circular wounds were clinically assessed by measuring diameter of the wound in millimeters, blood samples were collected, the rats were sacrificed, and skin samples collected for histological/histochemical, and biochemical assessment as described below. • 1) On day 7 after inducing wound healing, the animals were anesthetized and blood samples collected for blood glucose (one Touch Ultra Glucometer; Johnson & Johnson, New Brunswick, N.J.) and Hemoglobin A1c (A1c Now+; Bayer Health Care, Sunnyvale, Calif.) measurements. • 2) Photographs were taken for clinical observations to assess wound closure. The % reduction of the wound surface was calculated by measuring the diameter (in millimeters) of each wound before and after the treatment protocol. • 3) Wound tissues on day 7 were excised from 3 sites per rat and pooled for biochemical analysis. […] The supernates were then dialyzed against the Tris-HCl, NaCl, CaCl2 buffer, and the proteinases partially purified by ammonium sulfate precipitation and examined for levels of MMP-2 (72 kD gelatinse) and MMP-9 (92 kD gelatinase) by gelatin zymography using denatured type I collagen (gelatin) as the substrate (6). • 4) The remaining wounds were assessed histologically & histochemically by Dr. Steve McClain (McClain Labs, Smithtown, N.Y.) as follows: Biopsies of each wound site were taken and included both the wound tissue and surrounding non-wounded tissue. […]

The next data set deals with T1, MMP-2 (Homo sapiens, UniProt P08253).
T1 sequence (P08253 110-660): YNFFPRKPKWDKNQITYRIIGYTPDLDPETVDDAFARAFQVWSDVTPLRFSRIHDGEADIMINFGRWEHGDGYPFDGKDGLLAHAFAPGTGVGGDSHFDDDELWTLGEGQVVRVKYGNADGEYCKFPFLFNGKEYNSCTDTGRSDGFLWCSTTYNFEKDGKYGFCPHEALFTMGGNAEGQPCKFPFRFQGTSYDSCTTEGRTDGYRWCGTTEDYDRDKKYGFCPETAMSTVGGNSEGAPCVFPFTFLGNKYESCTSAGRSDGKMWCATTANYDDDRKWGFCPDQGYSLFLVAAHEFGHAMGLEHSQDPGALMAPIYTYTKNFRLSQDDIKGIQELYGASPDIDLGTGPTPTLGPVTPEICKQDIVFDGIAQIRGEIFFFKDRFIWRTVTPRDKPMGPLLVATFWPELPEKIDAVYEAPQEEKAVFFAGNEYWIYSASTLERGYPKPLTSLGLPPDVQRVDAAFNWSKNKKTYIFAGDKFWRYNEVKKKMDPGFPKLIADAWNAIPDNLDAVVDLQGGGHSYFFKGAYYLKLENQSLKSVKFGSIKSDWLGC
The data set can be described thus: fluorimetric assay of MMP activity. To be noted: synthetic fluorescent peptide substrate Mca-Lys-Pro-Leu-Gly-Leu-Dpa-Ala-Arg-NH2; read-out: IC50 MMP-2. Format: biochemical.

The subject of data set [5] is peritoneal macrophages. The experiment in a line: cell migration (chemotaxis) assay of peritoneal macrophages. Particulars: diabetic rats, oral 30 mg/kg daily, 21 days. The class given is in vivo, rat. How it is done:
as §1, §2

The next data set concerns the target MMP-8 (Homo sapiens, UniProt P22894). The data set can be described thus: fluorimetric assay of MMP activity. The class given is biochemical. To be noted: synthetic fluorescent peptide substrate Mca-Lys-Pro-Leu-Gly-Leu-Dpa-Ala-Arg-NH2.
For data set [6], the system named is MMP-9. The data set can be described thus: MMP-9 in conditioned media of peritoneal macrophages, gelatin zymography. Particulars: diabetic rats, oral 30 mg/kg daily, 21 days; no LPS. The class given is in vivo, rat. The method, then: as §1, §2
In another data set the target is T2, MMP-7 (Homo sapiens, UniProt P09237).
T2 sequence (P09237 95-267): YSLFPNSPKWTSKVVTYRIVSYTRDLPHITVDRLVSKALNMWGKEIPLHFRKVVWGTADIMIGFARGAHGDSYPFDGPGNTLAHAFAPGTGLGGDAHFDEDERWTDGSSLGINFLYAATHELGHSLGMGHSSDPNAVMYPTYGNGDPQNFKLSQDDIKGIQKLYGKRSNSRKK
The experiment in a line: fluorimetric assay of MMP activity. The class given is biochemical. To be noted: synthetic fluorescent peptide substrate Mca-Lys-Pro-Leu-Gly-Leu-Dpa-Ala-Arg-NH2.

“Also recorded” adds a separate entry of the source.

Chain of MMP-8 (P22894 101-467): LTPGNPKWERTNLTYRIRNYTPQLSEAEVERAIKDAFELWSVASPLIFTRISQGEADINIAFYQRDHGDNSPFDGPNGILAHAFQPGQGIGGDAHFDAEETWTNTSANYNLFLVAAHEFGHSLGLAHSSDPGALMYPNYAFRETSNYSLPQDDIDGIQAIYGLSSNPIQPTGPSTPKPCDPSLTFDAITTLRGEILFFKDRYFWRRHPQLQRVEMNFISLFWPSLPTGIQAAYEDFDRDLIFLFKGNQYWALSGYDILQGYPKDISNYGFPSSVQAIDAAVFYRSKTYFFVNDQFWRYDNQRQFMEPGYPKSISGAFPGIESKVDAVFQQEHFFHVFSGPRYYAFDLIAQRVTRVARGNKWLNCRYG

For orientation: IC50 means the concentration at which inhibition is half-maximal. Take `O=C(/C=C/c1ccc(O)cc1)C(C(=O)/C=C/c1ccc(O)cc1)C(=O)Nc1ccccc1` [Compound 4, 1,7-Bis(4-hydroxyphenyl)-4-N-phenylaminocarbonylhepta-1E, 6E-dien-3,5-dione]: the “anti-MMP activity (in words)” value in data set [1] is “highly active”. The IC50 came to 8 ± 0.6 µM against MMP-9 [2], 4.8 ± 0.5 µM at MMP-2, 4.5 ± 0.5 µM on MMP-8 and 5 ± 0.7 µM against MMP-7. In the data set on IL-6, the “IL-6 production by peritoneal macrophages” value is recorded as “decreased excessive inflammatory cytokine”. The “IL-1β production by peritoneal macrophages” value in the data set with IL-1β was “decreased excessive inflammatory cytokine”. The “macrophage accumulation in peritoneal exudates” value in the data set with peritoneal macrophages [3] is “decreased pathologically excessive macrophage accumulation”. The toxic effects entry in data set [4] (30 mg/kg body weight, diabetic rats) was “virtually no toxic effects”. Further, the tolerability result in data set [4] (topical (e.g. 1%) or systemic administration) was “well tolerated; also recorded: well tolerated and not toxic”. In addition, the macrophage chemotactic activity result with peritoneal macrophages [5] was “counteracted the suppression of macrophage chemotactic activity”. Moreover, the “MMP-9 levels in peritoneal macrophages” value with MMP-9 [6] is “decreased”.
